According to US10596169B2, “Cancer treatment with combination of plinabulin and taxane” (BeyondSpring Inc., priority 2013, dated 2020):
Marks after values point to notes of the source that are not given here.

Legend:
[1] = system: MV522 human non-small cell lung tumor xenograph model; experiment: Example 1: MV522 xenograft, NPI-2358 single agent and with docetaxel (TGI/TGD); format: in vivo, athymic nu/nu mice; details: for MDS day ± SD: endpoint 1.5 cm^3
Description: In vivo evaluation of plinabulin (NPI-2358) as a single agent and in combination with docetaxel in the MV522 human non-small cell lung tumor xenograph model in athymic nu/nu mice
The objective of the example was to determine potential additive or synergistic effects of plinabulin in combination with docetaxel in the MV522 model by exploring the scheduling of the drug combination explored by administering one of the agents 2 hours after the first drug was given. Significant endpoints for this experiment included mean tumor growth inhibition (TGI) or regression, tumor growth delay (TGD) in large tumor, weight loss, and mortality.
(§1) Female nude mice (Hsd: Athymic Nude-Foxn1^nu) between 5 and 6 weeks of age weighing approximately 20 grams were obtained from Harlan, Inc. (Madison, Wis.). MV522 is a conventional human NSC metastatic lung tumor cell line (U.S. Pat. No. 7,700,615 or 7,629,380). Animals were injected subcutaneously (SC) with approximately 1×10^7 MV522 cells harvested from tissue culture. When tumors grew to approximately 105 cubic millimeters (mm^3) in size (3 days following implantation), animals were pair-matched by tumor size into treatment and control groups; each treatment group contained eight mice. Animals were ear-tagged and followed individually throughout the experiment.
(§2) Initial doses were administered on Day 1 following pair-matching. The experiment was carried out as a tumor growth inhibition (TGI) and tumor growth delay (TGD) study. Group 1 endpoint was when tumor volume reached 1.2 cm^3 (TGI) and the treated groups endpoint was when each individual animal's tumor volume reached 1.5 cm^3 (TGD). […] To serve as negative controls, NPI-2358 vehicle and docetaxel vehicle were injected IP on a 2×WKLY×3 schedule and IV on a Q2D×3 schedule, respectively. Docetaxel was administered by intravenous (IV) injection via tail vein at 15 mg/kg once every other day for three treatments (Q2D×3) or at 25 mg/kg on a Q7D×3 schedule (every 7 day for three treatment). Docetaxel and docetaxel vehicle were administered two hours prior to NPI-2358 vehicle and NPI-2358, respectively, in Groups 7-9 and 12-14. For Groups 10, 11, 15, and 16, NPI-2358 was given two hours prior to docetaxel.
Mice were weighed and caliper tumor measurements taken. Tumor growth inhibition (TGI) values were calculated for each group containing treated animals using the formula below: […]
Animals experiencing complete tumor responses or animals experiencing technical or drug-related deaths were censored from final TGI calculations; however animals experiencing partial tumor responses were included in the final TGI calculations. […] TGI values for each treatment group are reported at study completion; these calculations are based on the final study day.
This arm of the study was ended on Day 74 at the sponsor's request. […] Upon TGD study completion, a Median Day of Sacrifice (MDS) was calculated for the control (C) and each treatment (T) group and used to determine tumor growth delay (T-C) using the following equations: MDS=Median [ΣIDS] T−C=MDSTreated−MDSControl
Where IDS (Individual Day of Sacrifice) is the day when each animal reached its tumor volume endpoint (1.5 cm^3); only animals reaching this endpoint were included in TGD calculations. Gross or net log10 cell kill for each treatment group was determined using the following equations: […]

[2] = mouse, in vivo
Description: as §1, §2
Individual and group mean weights ±SD and percent weight change were recorded twice weekly until study completion beginning Day 1. Group weights on Day 42 and weight nadir values are reported.
Animals were observed twice weekly for general moribundity and daily for mortality.

[3] = Example 2: animal weight and drug toxicity in MV522 xenograft mice; format: in vivo, athymic nu/nu mice
Description: Female nude mice (Hsd: Athymic Nude-Foxn1^nu) between 5 and 6 weeks of age weighing approximately 20 grams were obtained from Harlan, Inc. (Madison, Wis.). Animals were injected subcutaneously (SC) with approximately 1×10^7 MV522 cells harvested from tissue culture (1:1 matrigel:media). When tumors grew to approximately 100 cubic millimeters (mm^3) in size, animals were pair-matched by tumor size into treatment and control groups. Animals were ear-tagged and followed individually throughout the experiment.
Initial doses were administered on Day 1 following pair-matching. The experiment was carried out as both a tumor growth inhibition (TGI) and tumor growth delay (TGD) study. For TGI, the endpoint was when the average tumor volume of Group 1 reached 1.2 cm^3. For TGD, the endpoint was reached when each individual animal's tumor volume reached 1.0 cm^3. A 10 mg/ml stock vial of docetaxel was diluted in 0.9% saline on each day of dosing and administered intravenously (IV).
Individual and group mean weights ±SD and percent weight change were recorded twice weekly until study completion beginning Day 1. Group weights through Day 24 or 53 and weight nadir values are reported.

[4] = G7: docetaxel 15 mg/kg IV Q2Dx3 + NPI-2358 vehicle
[5] = G12: docetaxel 25 mg/kg IV Q7Dx3 + NPI-2358 vehicle
[6] = G2: docetaxel 15 mg/kg IV + NPI-2358 vehicle 1 h after
[7] = G3: docetaxel 15 mg/kg IV + NPI-2358 vehicle 4 h after
[8] = G4: docetaxel 15 mg/kg IV + NPI-2358 vehicle 24 h after
[9] = G11: docetaxel 25 mg/kg IV + NPI-2358 vehicle 1 h after
[10] = G12: docetaxel 25 mg/kg IV + NPI-2358 vehicle 4 h after
[11] = G13: docetaxel 25 mg/kg IV + NPI-2358 vehicle 24 h after

With `CC(=O)O[C@@]12CO[C@@H]1C[C@H](O)[C@@]1(C)C(=O)[C@H](O)C3=C(C)[C@@H](OC(=O)[C@H](O)[C@@H](NC(=O)OC(C)(C)C)c4ccccc4)C[C@@](O)([C@@H](OC(=O)c4ccccc4)[C@H]21)C3(C)C` [Docetaxel, docetaxel] the “#CR (Day 25)” value [1, 4] was 0/0, the “#CR (TGD study)” value [1, 4] was 0/0 and the “#LTS (long-term survivors)” value [1, 4] was 0. For the same compound, the “#PR (Day 25)” value [1, 4] was 0/0, the “#PR (TGD study)” value [1, 4] was 0/0 and the “% TGI” value [1, 4] was 88%. For the same compound, the “Final tumor volume (Day 25) mean ± SEM” value [1, 4] was 259 ± 45 mm^3, the Log10 cell kill [1, 4] was 0.4 and the “T-C (tumor growth delay)” value [1, 4] was 16. The “MDS day ± SD” value [1, 4] was 45 ± 9 days, the “#CR (Day 25)” value [1, 5] was 0 and the “#CR (TGD study)” value [1, 5] was 0/0. The “#LTS (long-term survivors)” value [1, 5] was 2, the “#PR (Day 25)” value [1, 5] was 8 and the “#PR (TGD study)” value [1, 5] was 0/0. The “% TR (Day 25)” value [1, 5] was 58%, the Activity rating [1, 5] was “+ (1.0-1.9)” and the “Final tumor volume (Day 25) mean ± SEM” value [1, 5] was 43 ± 4 mm^3. For the same compound, the Log10 cell kill [1, 5] was 1.0, the “T-C (tumor growth delay)” value [1, 5] was 39 and the “MDS day ± SD” value [1, 5] was 68 ± 6 days. The “% TGI” value ([1]; G12: docetaxel 25 mg/kg IV Q7Dx3 + NPI-2358 vehicle, value includes tumors with PR) was 107^† %, the “Tumor volume / tumor burden compared to vehicle control” value ([1]; single agent, Example 1) was “strong decrease in tumor burden” and the Animal weight loss [2] was “significant animal weight loss was observed”. For the same compound, the “Final weight - Day 24 % change” value [3, 6] was “+13%”, the “Final weight - Day 24 AVG +/− SD” value [3, 6] was 22 ± 1 g and the “Weight nadir % change” value [3, 6] was −14%. For the same compound, the Weight nadir day [3, 6] was 10, the “Final weight - Day 24 % change” value [3, 7] was “+12%” and the “Final weight - Day 24 AVG +/− SD” value [3, 7] was 23 ± 2 g. For the same compound, the “Weight nadir % change” value [3, 7] was −10%, the Weight nadir day [3, 7] was 10 and the “Final weight - Day 24 % change” value [3, 8] was “+17%”. The “Final weight - Day 24 AVG +/− SD” value [3, 8] was 23 ± 2 g, the “Weight nadir % change” value [3, 8] was −10% and the Weight nadir day [3, 8] was 10. For the same compound, the “Final weight - Day 24 % change” value [3, 9] was −10%, the “Final weight - Day 24 AVG +/− SD” value [3, 9] was 18 ± 2 g and the “Weight nadir % change” value [3, 9] was −13%. For the same compound, the Weight nadir day [3, 9] was 17, the “Final weight - Day 24 % change” value [3, 10] was −11% and the “Final weight - Day 24 AVG +/− SD” value [3, 10] was 17 ± 2 g. The “Weight nadir % change” value [3, 10] was −14%, the Weight nadir day [3, 10] was 10 and the “Final weight - Day 24 % change” value [3, 11] was −12%. For the same compound, the “Final weight - Day 24 AVG +/− SD” value [3, 11] was 17 ± 3 g, the “Weight nadir % change” value [3, 11] was −20% and the Weight nadir day [3, 11] was 17.
